From patent US12296053B2, “Nanomaterials comprising triols” (Beam Therapeutics Inc., priority 2022, dated 2025)

Assays:
[1] = Encapsulation efficiency of LNP preparations (Ribogreen assay; Qubit, unlysed and lysed LNPs); type: physicochemical; details: LNP preparation with the ionizable lipid, ABE mRNA:sgRNA 1:1, except 7-1, 7-2, 7-6, 7-10 (unlysed and lysed LNPs, Qubit)
Summary of the method: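 LNPs of ionizable lipid, cholesterol, PEG2000-DMG and DSPC (47.5:40:2.5:10 mol%) were made by microfluidic mixing with base-editor mRNA plus sgRNA (1:1 mass) in 50 mM citrate, pH 4.0, at total lipid:NA molar ratio 6 to 12. Encapsulation was read by Ribogreen, or for lipids 7-1, 7-2, 7-6 and 7-10 by Qubit on unlysed versus lysed LNPs.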

[2] = test system: ALAS1 target site; assay: Base editing in liver by LNP-delivered ABE mRNA and sgRNA, targeted deep sequencing; type: in vivo; details: LNP with the ionizable lipid, ABE mRNA + sgRNA targeting ALAS1 1:1; tail vein injection, Balb/c mice; 0.05 mg/kg; tissues four to six days post-dose
[3] = LNP hydrodynamic diameter and polydispersity index by dynamic light scattering (DLS); type: physicochemical; details: for Diameter (nm): hydrodynamic diameter of the LNP preparation with the ionizable lipid; for PDI: polydispersity index of the LNP preparation with the ionizable lipid
Summary of the method: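 LNPs were mixed at a 3:1 aqueous:organic ratio, diluted in TBS and dialysed against TBS at 4° C. for 8 to 24 hours (20 kDa). Hydrodynamic diameter and PDI were then measured by high-throughput DLS after dilution in 1×PBS.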

Row | SMILES | Encapsulation Efficiency (%) [1] | % Editing in Liver (0.05 mpk) [2] | Diameter (nm) [3] | PDI [3]
1 | CC/C=C\CCCCOC(CCC(=O)OCC(COC(=O)CCCCCCC(=O)OCCC(CCCCC)CCCCC)COC(=O)CCC(CCCCCC)OC(=O)NCCN1CCCC1)OCCCC/C=C\CC (centres unmarked) [Compound 7-19, 1-(3-((4,4-bis(((Z)-oct-5-en-1-yl)oxy)butanoyl)oxy)-2-(((4-(((2-(pyrrolidin-1-yl)ethyl)carbamoyl)oxy)decanoyl)oxy)methyl)propyl) 8-(3-pentyloctyl) octanedioate] | 97.2% | 1.7% | 54.15 nm | 0.12
2 | CC/C=C\CCCCOC(CCC(=O)OCC(COC(=O)CCC(CCCCCC)OC(=O)NCCN1CCCC1)COC(=O)CCC(OCCCC/C=C\CC)OCCCC/C=C\CC)OCCCC/C=C\CC (centres unmarked) [Compound 7-38, 2-(((4-(((2-(pyrrolidin-1-yl)ethyl)carbamoyl)oxy)decanoyl)oxy)methyl)propane-1,3-diyl bis(4,4-bis(((Z)-oct-5-en-1-yl)oxy)butanoate)] | 99.1% | 9.4% | 60.25 nm | 0.06
